From paper PMC10452110, “Indole-3-Acetamido-Polyamines as Antimicrobial Agents and Antibiotic Adjuvants” (Biomolecules, 2023)

Key:
[1] = test system: Pseudomonas aeruginosa (ATCC 27853); experiment: Intrinsic antimicrobial activity (MIC) against P. aeruginosa; type: cell-based; details: ATCC27853, P. aeruginosa ATCC 27853, mean (n = 3), read-out: MIC P. a
Procedure: (§1) The susceptibility of bacterial strains Staphylococcus aureus (ATCC 25923), Escherichia coli (ATCC 25922) and Pseudomonas aeruginosa (ATCC 27853) to antibiotics and compounds was determined using previously reported protocols. Additional antimicrobial evaluation against MRSA (ATCC 43300), Klebsiella pneumoniae (ATCC 700603), Acinetobacter baumannii (ATCC 19606), Candida albicans (ATCC 90028) and Cryptococcus neoformans (ATCC 208821) was undertaken at the Community for Open Antimicrobial Drug Discovery at The University of Queensland (Australia) according to their standard protocols, as reported previously.

[2] = test system: MRSA (ATCC 43300); experiment: Intrinsic antimicrobial activity (MIC) against MRSA; type: cell-based; details: Staphylococcus aureus, MRSA ATCC 43300; mean (n = 2); read-out: MIC MRSA
Procedure: as §1

[3] = test system: E. coli ATCC 25922; experiment: Enhancement of erythromycin action against E. coli; type: cell-based, Escherichia coli; details: erythromycin at 10.9 µM
Procedure: (§2) Antibiotic enhancer concentrations were determined using previously reported protocols.

[4] = test system: Cryptococcus neoformans (ATCC 208821); experiment: Intrinsic antifungal activity (MIC) against C. neoformans; type: cell-based; details: ATCC208821, C. neoformans ATCC 208821, mean (n = 2), read-out: MIC C. n
Procedure: as §1

[5] = test system: Candida albicans (ATCC 90028); experiment: Intrinsic antifungal activity (MIC) against C. albicans; type: cell-based; details: ATCC90028, C. albicans ATCC 90028, mean (n = 2), read-out: MIC C. a
Procedure: as §1

[6] = test system: Acinetobacter baumannii (ATCC 19606); experiment: Intrinsic antimicrobial activity (MIC) against A. baumannii; type: cell-based; details: ATCC19606, A. baumannii ATCC 19606, mean (n = 2), read-out: MIC A. b
Procedure: as §1

[7] = test system: Escherichia coli (ATCC 25922); experiment: Intrinsic antimicrobial activity (MIC) against E. coli; type: cell-based; details: ATCC25922, E. coli ATCC 25922, mean (n = 3), read-out: MIC E. c
Procedure: as §1

[8] = test system: Klebsiella pneumoniae (ATCC 700603); experiment: Intrinsic antimicrobial activity (MIC) against K. pneumoniae; type: cell-based; details: ATCC700603, K. pneumoniae ATCC 700603, mean (n = 2), read-out: MIC K. p
Procedure: as §1

[9] = test system: Staphylococcus aureus (ATCC 25923); experiment: Intrinsic antimicrobial activity (MIC) against S. aureus; type: cell-based; details: ATCC25923, S. aureus ATCC 25923, mean (n = 3), read-out: MIC S. a
Procedure: as §1

[10] = test system: P. aeruginosa ATCC 27853; experiment: Enhancement of doxycycline action against P. aeruginosa; type: cell-based, Pseudomonas aeruginosa; details: doxycycline at 4.5 µM
Procedure: as §2

[11] = Cytotoxicity assay; type: cell-based; details: human; HEK293 cells; mean (n = 2); read-out: Cytotoxicity: concentration of compound at 50% cytotoxicity (IC50)
Procedure: Cytotoxicity assays were conducted using the protocols previously reported.

[12] = test system: human red blood cells; experiment: Hemolytic assay; type: cell-based; details: mean (n = 2)
Procedure: Hemolysis assays were conducted using the protocols previously reported.

## O=C(Cc1c[nH]c2ccc(Br)cc12)NCCCNCCCCCCNCCCNC(=O)Cc1c[nH]c2ccc(Br)cc12.O=C(O)C(F)(F)F.O=C(O)C(F)(F)F [Compound 15b, N^1,N^6-Bis(3-(2-(5-bromo-1H-indol-3-yl)acetamido)propyl)hexane-1,6-diaminium 2,2,2-trifluoroacetate]
[1]
  MIC: 215 µM
[2]
  MIC: < 0.2 µM
[3]
  Eryth/E. c: concentration required to restore erythromycin activity (combination MIC): 53.7 µM
[4]
  MIC: < 0.2 µM
[5]
  MIC: 2.15 µM
[6]
  MIC: > 34 µM
[7]
  MIC: 26.9 µM
[8]
  MIC: > 34 µM
[9]
  MIC: 13.4 µM
[10]
  Dox/P. a fold change (ratio between intrinsic MIC of the test compound and combination MIC): 8 fold
  Dox/P. a: concentration required to restore doxycycline activity (combination MIC): 26.9 µM
[11]
  IC50: > 34 µM
[12]
  Hemolysis: concentration of compound at 10% hemolytic activity (HC10): >34 µM

## O=C(Cc1c[nH]c2c(F)cccc12)NCCCNCCCCNCCCNC(=O)Cc1c[nH]c2c(F)cccc12.O=C(O)C(F)(F)F.O=C(O)C(F)(F)F [Compound 18a, N^1,N^4-Bis(3-(2-(7-fluoro-1H-indol-3-yl)acetamido)propyl)butane-1,4-diaminium 2,2,2-trifluoroacetate]
[1]
  MIC: > 256 µM
[2]
  MIC: < 0.2 µM
[3]
  Eryth/E. c: concentration required to restore erythromycin activity (combination MIC): 64.0 µM
[4]
  MIC: < 0.2 µM
[5]
  MIC: 5.12 µM
[6]
  MIC: > 41 µM
[7]
  MIC: 256 µM
[8]
  MIC: > 41 µM
[9]
  MIC: 16 µM
[10]
  Dox/P. a fold change (ratio between intrinsic MIC of the test compound and combination MIC): 4 fold
  Dox/P. a: concentration required to restore doxycycline activity (combination MIC): 64.0 µM
[11]
  IC50: > 41 µM
[12]
  Hemolysis: concentration of compound at 10% hemolytic activity (HC10): >41 µM

## Cc1ccc2[nH]cc(CC(=O)NCCCNCCCCCCCNCCCNC(=O)Cc3c[nH]c4ccc(C)cc34)c2c1.O=C(O)C(F)(F)F.O=C(O)C(F)(F)F [Compound 17c, N^1,N^7-Bis(3-(2-(5-methyl-1H-indol-3-yl)acetamido)propyl)heptane-1,7-diaminium 2,2,2-trifluoroacetate]
[1]
  MIC: > 245 µM
[2]
  MIC: < 0.2 µM
[3]
  Eryth/E. c: concentration required to restore erythromycin activity (combination MIC): 61.4 µM
[4]
  MIC: < 0.2 µM
[5]
  MIC: 39.3 µM
[6]
  MIC: > 39 µM
[7]
  MIC: 245 µM
[8]
  MIC: > 39 µM
[9]
  MIC: 61.4 µM
[10]
  Dox/P. a fold change (ratio between intrinsic MIC of the test compound and combination MIC): > 2 fold
  Dox/P. a: concentration required to restore doxycycline activity (combination MIC): 123 µM
[11]
  IC50: > 39 µM
[12]
  Hemolysis: concentration of compound at 10% hemolytic activity (HC10): >39 µM

## Cc1ccc2[nH]cc(CC(=O)NCCCNCCCCNCCCNC(=O)Cc3c[nH]c4ccc(C)cc34)c2c1.O=C(O)C(F)(F)F.O=C(O)C(F)(F)F [Compound 17a, N^1,N^4-Bis(3-(2-(5-methyl-1H-indol-3-yl)acetamido)propyl)butane-1,4-diaminium 2,2,2-trifluoroacetate]
[1]
  MIC: > 259 µM
[2]
  MIC: ≤ 0.32 µM
[3]
  Eryth/E. c: concentration required to restore erythromycin activity (combination MIC): 64.7 µM
[4]
  MIC: ≤ 0.32 µM
[5]
  MIC: 20.7 µM
[6]
  MIC: > 41 µM
[7]
  MIC: > 259 µM
[8]
  MIC: > 41 µM
[9]
  MIC: 129 µM
[10]
  Dox/P. a fold change (ratio between intrinsic MIC of the test compound and combination MIC): > 2 fold
  Dox/P. a: concentration required to restore doxycycline activity (combination MIC): 129 µM
[11]
  IC50: > 41 µM
[12]
  Hemolysis: concentration of compound at 10% hemolytic activity (HC10): 8.46 µM

## O=C(Cc1c[nH]c2c(F)cccc12)NCCCNCCCCCCNCCCNC(=O)Cc1c[nH]c2c(F)cccc12.O=C(O)C(F)(F)F.O=C(O)C(F)(F)F [Compound 18b, N^1,N^6-Bis(3-(2-(7-fluoro-1H-indol-3-yl)acetamido)propyl)hexane-1,6-diaminium 2,2,2-trifluoroacetate]
[1]
  MIC: > 247 µM
[2]
  MIC: < 0.2 µM
[3]
  Eryth/E. c: concentration required to restore erythromycin activity (combination MIC): > 247 µM
[4]
  MIC: < 0.2 µM
[5]
  MIC: 39.6 µM
[6]
  MIC: > 40 µM
[7]
  MIC: > 247 µM
[8]
  MIC: > 40 µM
[9]
  MIC: 124 µM
[10]
  Dox/P. a fold change (ratio between intrinsic MIC of the test compound and combination MIC): > 1 fold
  Dox/P. a: concentration required to restore doxycycline activity (combination MIC): 247 µM
[11]
  IC50: > 40 µM
[12]
  Hemolysis: concentration of compound at 10% hemolytic activity (HC10): >40 µM
